Measured values reported in the CheMixHub ionic liquid set.

Test: xn = mol fraction of the nth substance listed

CC[n+]1ccn(C)c1.N#C[N-]C#N + O
Details | electrical conductivity [S/m] | viscosity [mPa·s]
288.15 K, 100 kPa, x2 = 0 | – | 20
288.15 K, 100 kPa, x2 = 0.1016 | – | 17.49
288.15 K, 100 kPa, x2 = 0.2014 | – | 15.14
288.15 K, 100 kPa, x2 = 0.2999 | – | 13.02
288.15 K, 100 kPa, x2 = 0.4015 | – | 11.08
288.15 K, 100 kPa, x2 = 0.5106 | – | 9.24
288.15 K, 100 kPa, x2 = 0.5934 | – | 7.86
288.15 K, 100 kPa, x2 = 0.7465 | – | 5.45
288.15 K, 100 kPa, x2 = 0.7974 | – | 4.58
288.15 K, 100 kPa, x2 = 0.9004 | – | 2.76
288.15 K, 100 kPa, x2 = 0.9498 | – | 1.93
293.15 K, 100 kPa, x2 = 0 | – | 16.9
293.15 K, 100 kPa, x2 = 0.1016 | – | 14.89
293.15 K, 100 kPa, x2 = 0.2014 | – | 12.98
293.15 K, 100 kPa, x2 = 0.2999 | – | 11.23
293.15 K, 100 kPa, x2 = 0.4015 | – | 9.59
293.15 K, 100 kPa, x2 = 0.5106 | – | 8
293.15 K, 100 kPa, x2 = 0.5934 | – | 6.83
293.15 K, 100 kPa, x2 = 0.7465 | – | 4.74
293.15 K, 100 kPa, x2 = 0.7974 | – | 3.99
293.15 K, 100 kPa, x2 = 0.9004 | – | 2.41
293.15 K, 100 kPa, x2 = 0.9498 | – | 1.69
293.2 K, 101 kPa, x2 = 0.6 | 4.47 | –
293.2 K, 101 kPa, x2 = 0.8 | 5.69 | –
298.15 K, 100 kPa, x2 = 0 | – | 14.54
298.15 K, 100 kPa, x2 = 0.1016 | – | 12.86
298.15 K, 100 kPa, x2 = 0.2014 | – | 11.23
298.15 K, 100 kPa, x2 = 0.2999 | – | 9.77
298.15 K, 100 kPa, x2 = 0.4015 | – | 8.37
298.15 K, 100 kPa, x2 = 0.5106 | – | 7.01
298.15 K, 100 kPa, x2 = 0.5934 | – | 5.99
298.15 K, 100 kPa, x2 = 0.7465 | – | 4.16
298.15 K, 100 kPa, x2 = 0.7974 | – | 3.5
298.15 K, 100 kPa, x2 = 0.9004 | – | 2.13
298.15 K, 100 kPa, x2 = 0.9498 | – | 1.5
298.15 K, 101 kPa, x2 = 0 | – | 14.9
298.15 K, 101 kPa, x2 = 0.2248 | – | 11.24
298.15 K, 101 kPa, x2 = 0.3042 | – | 10.14
298.15 K, 101 kPa, x2 = 0.4308 | – | 8.39
298.15 K, 101 kPa, x2 = 0.7944 | – | 3.61
298.15 K, 101 kPa, x2 = 0.8803 | – | 2.46
303.15 K, 100 kPa, x2 = 0 | – | 12.63
303.15 K, 100 kPa, x2 = 0.1016 | – | 11.21
303.15 K, 100 kPa, x2 = 0.2014 | – | 9.84
303.15 K, 100 kPa, x2 = 0.2999 | – | 8.59
303.15 K, 100 kPa, x2 = 0.4015 | – | 7.38
303.15 K, 100 kPa, x2 = 0.5106 | – | 6.19
303.15 K, 100 kPa, x2 = 0.5934 | – | 5.29
303.15 K, 100 kPa, x2 = 0.7465 | – | 3.67
303.15 K, 100 kPa, x2 = 0.7974 | – | 3.09
303.15 K, 100 kPa, x2 = 0.9004 | – | 1.89
303.15 K, 100 kPa, x2 = 0.9498 | – | 1.34
308.15 K, 100 kPa, x2 = 0 | – | 11.05
308.15 K, 100 kPa, x2 = 0.1016 | – | 9.86
308.15 K, 100 kPa, x2 = 0.2014 | – | 8.69
308.15 K, 100 kPa, x2 = 0.2999 | – | 7.61
308.15 K, 100 kPa, x2 = 0.4015 | – | 6.55
308.15 K, 100 kPa, x2 = 0.5106 | – | 5.5
308.15 K, 100 kPa, x2 = 0.5934 | – | 4.71
308.15 K, 100 kPa, x2 = 0.7465 | – | 3.27
308.15 K, 100 kPa, x2 = 0.7974 | – | 2.76
308.15 K, 100 kPa, x2 = 0.9004 | – | 1.7
308.15 K, 100 kPa, x2 = 0.9498 | – | 1.2
308.2 K, 101 kPa, x2 = 0.2 | 3.89 | –
308.2 K, 101 kPa, x2 = 0.6 | 6.36 | –
313.15 K, 100 kPa, x2 = 0 | – | 9.76
313.15 K, 100 kPa, x2 = 0.1016 | – | 8.74
313.15 K, 100 kPa, x2 = 0.2014 | – | 7.73
313.15 K, 100 kPa, x2 = 0.2999 | – | 6.79
313.15 K, 100 kPa, x2 = 0.4015 | – | 5.86
313.15 K, 100 kPa, x2 = 0.5106 | – | 4.93
313.15 K, 100 kPa, x2 = 0.5934 | – | 4.23
313.15 K, 100 kPa, x2 = 0.7465 | – | 2.93
313.15 K, 100 kPa, x2 = 0.7974 | – | 2.48
313.15 K, 100 kPa, x2 = 0.9004 | – | 1.53
313.15 K, 100 kPa, x2 = 0.9498 | – | 1.09
313.15 K, 101 kPa, x2 = 0.2248 | – | 7.79
313.15 K, 101 kPa, x2 = 0.8803 | – | 1.73
313.15 K, 101 kPa, x2 = 0.953 | – | 1.08
313.2 K, 101 kPa, x2 = 0.2 | 4.32 | –
313.2 K, 101 kPa, x2 = 0.8 | 8.83 | –
318.15 K, 100 kPa, x2 = 0 | – | 8.69
318.15 K, 100 kPa, x2 = 0.1016 | – | 7.79
318.15 K, 100 kPa, x2 = 0.2014 | – | 6.92
318.15 K, 100 kPa, x2 = 0.2999 | – | 6.1
318.15 K, 100 kPa, x2 = 0.4015 | – | 5.27
318.15 K, 100 kPa, x2 = 0.5106 | – | 4.45
318.15 K, 100 kPa, x2 = 0.5934 | – | 3.81
318.15 K, 100 kPa, x2 = 0.7465 | – | 2.64
318.15 K, 100 kPa, x2 = 0.7974 | – | 2.24
318.15 K, 100 kPa, x2 = 0.9004 | – | 1.39
318.15 K, 100 kPa, x2 = 0.9498 | – | 0.99
318.2 K, 101 kPa, x2 = 0.2 | 4.77 | –
328.15 K, 101 kPa, x2 = 0.7944 | – | 1.9
328.2 K, 101 kPa, x2 = 0.2 | 5.74 | –
338.2 K, 101 kPa, x2 = 0.4 | 8.22 | –
338.2 K, 101 kPa, x2 = 0.6 | 10.6 | –
343.15 K, 101 kPa, x2 = 0 | – | 5.48

COCC[n+]1ccn(C)c1.O=S(=O)([N-]S(=O)(=O)C(F)(F)F)C(F)(F)F + O
101 kPa, x1 = 0.838
Details | electrical conductivity [S/m] | viscosity [mPa·s]
283 K | – | 66.6
298.15 K | 0.58 | –
